This is an account of results in patent US5462927A, “Peptides aiding nerve regeneration” (The Administrators of the Tulane Educational Fund, priority 1992, dated 1995).

Assay [1] has as its system crushed sciatic nerve. The experiment in a line: Sensorimotor function test (sciatic nerve regeneration assay, foot-flick response to thermal pain). The conditions noted are these: s.c. every 24 hr for approximately 20-25 days; head prints only 'μG/24 HRS'; vs 0.9% NaCl control. Format: in vivo, rat. On the procedure: Female, Sprague-Dawley rats (Charles River Breeding Labs) were used at an age of 7-8 weeks (120-140 g). Under ether anesthesia, the right sciatic nerve was carefully exposed and crushed with constant pressure, hemostatic forceps for 30 sec prior to closure and suturing of the incision. After surgery, the animals were randomly assigned to treatment groups of 10. The test peptides were administered s.c. in 0.9% NaCl in a vol of 0.1 ml. NaCl (0.9%) served as the control. Injections were started immediately after surgery and given every 24 hr thereafter for approximately 20-25 days. The criterion of sciatic nerve regeneration was based on the recovery of the foot-flick response to thermal pain. Beginning 48 hr after surgery, the rats were tested five days a week for the ability to withdraw, from a heat source, the paw innervated by the crushed nerve. All sensorimotor testing was performed between 1:00 and 3:00 p.m. Specifically, the rat was immobilized by wrapping in a towel, and the sole of the lesioned limb was placed over the aperture of a modified d'Amour apparatus. The time required to withdraw the foot was recorded to the nearest 0.1 of sec using a digital stopwatch. If no response occurred by 5 sec, the test was terminated to avoid tissue damage. The observe measuring the foot-flick response was blind to the treatment group being tested. All animals were acclimatized to the testing procedure prior to surgery. Baseline values were obtained by determining the response time for the unlesioned limb.

For assay [2], the system named is crushed peroneal nerve. The experiment in a line: Walking test (locomotor pattern, toespread) after peroneal nerve crush. Format: in vivo, rat. On the procedure: The effect of BIM-22015 regeneration of the crushed peroneal nerve in the rat was assessed using both morphological and physiological studies, as follows. Both locomotor pattern and endplate morphology during the early stages of crushed nerve regeneration were assessed after treatment with BIM-220150 Adult Sprague-Dawley male rats (Taconic Farms) were maintained at 25° C. on a 12 hour light and a 12 hour dark cycle and were supplied with standard rat chow and water ad lib. All surgery was performed under anesthesia with 8% chlorohydrate (0.6 ml/100 g I.P.). Denervation was accomplished using a #5 Dumont forceps with a uniformly filed tip to crush the peroneal nerve. This crush produced a 1 mm wide lesion just proximal to the EDL (extention digitarum longus) muscle. The wound was closed with surgical staples. Following surgery, the animal was immediately administered saline or BIM-22015 in one of the following dosages: (1) 0.9% saline, (2) 10.0 ug BIM-22015, (3) 5.0 ug BIM-22015, (3) 1.0 ug BIM-22015, or (4) 0.1 ug BIM-22015 (per animal). Administration continued once every 48 hours for 5 days; on day 5, the rats were killed and tissues taken for morphological analysis. All injections and surgeries occurred between 10:00 and 12:00 noon.
Locomotor pattern was tested by measuring the walking pattern of the animal. The animal was allowed to walk up a 20° inclined platform. The track was well-lit by fluorescent tubes and a dark box was placed at the end of the track. This dark and light differences was used to entice the animal to walk up the track. […] The distance between the first and fifth digit was determined using a Manostat mechanical caliper (type 6911) with accuracy of ±0.005 mm0 The contralateral foot was used as a control to negate the size differences in individual animals. The Student T test was used to determine the statistical differences, and data were expressed as means of the six sharpest toespreads and the standard error of the mean (using 95% confidence formula), standard deviation, and variances.

The structures appear in SMILES notation. Square brackets hold non-standard residues; d marks the D form. Peptide text beside a SMILES is read from it.

`C[C@@H](N)C(=O)N[C@@H](CCC(N)=O)C(=O)N[C@@H](Cc1ccc(O)cc1)C(=O)N[C@@H](Cc1ccccc1)C(=O)N[C@@H](CCCNC(=N)N)C(=O)N[C@@H](Cc1c[nH]c2ccccc12)C(=O)NCC(N)=O` [BIM-22015, D--Ala--Gln--Tyr--Phe--Arg--Trp--Gly--NH2] (H-[dA]QYFRWG-NH2): the “% Reduction of Recovery Time” value in assay [1] amounted to 28%. Further, the “recovery rate of locomotion (walking test)” value in assay [2] (0.1 μg per animal, once every 48 hours, days 3-5 after surgery, not statistically significant) is recorded as “very consistent upward recovery rate”; in assay [2] (the other dosages (above 0.1 μg) vs saline control), “outperformed the saline control animal but only by a slight margin”. Also, the “optimal dosage (walking test)” value in assay [2] (dosages 0.1-10.0 ug per animal compared) came to 0.1 µg.
